Test results as given in patent US5006515A, “Pharmaceuticals, phosphorus-containing 2-isoxazolines and isoxazoles contained therein” (Hoechst Aktiengesellschaft, priority 1987, dated 1991).

What was measured:
active Arthus reaction = test: Active Arthus reaction in the rat; type: in vivo, Sprague-Dawley rats; conditions: Rattus norvegicus, po, 4 h, oral dose 35 mg/kg, 4 h after ovalbumin challenge; read-out: Active Arthus reaction % change
Method: The experimental animals used were female and male Sprague-Dawley rats with a body weight between 80 and 100 g which received subcutaneous injections into the tail-head of 0.5 ml of an emulsion of pertussis vaccine and ovalbumin in liquid paraffin. After two weeks, the rats were divided into groups each of 8 animals. 24 hours and 1 hour before induction of the Arthus reaction by injection of 0.1 ml of a 0.4% strength ovalbumin solution into the right hind paw, the particular test substance or the pure vehicle (positive control) was administered orally, sodium chloride solution was injected into the left paw. One group of unsensitized animals (negative control group) was likewise treated with ovalbumin in order to be able to rule out nonspecific reactions to the protein. The parameter used for measuring the action of the product was the percentage change in the increase in paw volume compared with that in the control group which was sensitized but untreated (positive control) 4 hours after ovalbumin challenge, when the swelling had reached its maximum.

Acute toxicity = test: Acute toxicity; design: species or system mice; conditions: mouse, in vivo, iv, single dose, mortality within 7 days
Method: The LD50 values were determined by the standard method via the mortality occurring within 7 days in NMRI (Naval Medical Research Institute) mice (6 animals per dose) after a single intraperitoneal (i.p.) or intravenous (i.v.) dose.

[1] = test system: DTH reaction to sheep erythrocytes; test: Delayed-type hypersensitivity (DTH) reaction to sheep erythrocytes; type: in vivo, female NMRI mice
Method: Groups each comprising 5 female NMRI mice with a body weight of 18 to 20 g were formed, and each animal was given 10^6 or 10^9 sheep red blood cells intravenously. Sheep erythrocytes are regarded in immunology as a standard antigen with which it is possible to check cellular and humoral immunoreactivity, especially the functioning of the T-cell-dependent component of the immune system, the so-called T-helper cells. The test substances were administered, in intraperitoneal doses of 5 to 100 mg/kg in physiological saline, at the same time as the antigen. After 5 days, each animal was given an injection of 2×10^8 sheep erythrocytes into the footpad. 24 hours later, the swelling of the foot was measured. The foot swelling is induced by a skin reaction of the delayed type (DTH reaction) and, as is known to those skilled in the art, is a measure of the cellular immune response (J. Immunol. 101 (1968), 830-845). The test results obtained with the product of Example 34, by way of example, are compiled in Table 7 and illustrate that the compounds of the formula I--administered prophylactically--are able to increase the cellular immune response after immunization with the antigen by stimulation of the T-cell system, with the stimulant action reaching its optimum in this experiment at a dose of 25 mg/kg.

Listeria monocytogenes [2] = test: DTH reaction in mice infected with Listeria monocytogenes; type: in vivo, female NMRI mice
Method: In this experiment, the specific, cell-mediated immunity against the bacterium Listeria monocytogenes was investigated by means of the DTH reaction Female NMRI mice were infected with 2×10^2 live bacteria and then divided into groups each containing 10 animals. The treatment of the animals by intraperitoneal administration of the product in doses of 0.1, 1 or 10 mg/kg was started the same day. This treatment was repeated after 2, 4 and 6 days. Infected animals in a fourth experimental group, which received merely the pure vehicle i.p. in place of the product, acted as positive control. On day 13 of the experiment the DTH reaction was induced by injection of a soluble antigen obtained from Listeria monocytogenes into the footpad. 10 uninfected animals in a 5th experimental group (negative control) were likewise treated with the antigen in order to rule out non-specific reactions to the antigen challenge 24 hours after the administration of antigen, the percentage increase in the paw volume was determined as a measure of the induced DTH reaction.
The same experimental system was also used to examine the effect of the test substance on i.p. administration of 10 mg/kg on the DTH reaction of female NMRI mice after infection with differing amounts of the bacterium Listeria monocytogenes. The animals received either 2×10^2 or 5×10^2 organisms. According to this, although the DTH reaction is increased by the test substance at both organism concentrations, this stimulation is distinctly more pronounced in the animal group infected with the lower number of organisms.

Listeria monocytogenes [3] = test: Mortality and organ colonization in mice infected with Listeria monocytogenes; type: in vivo, female NMRI mice; conditions: 4 × 10 mg/kg i.p.
Text: Female NMRI mice (10 animals/group) were infected with a low dose of Listeria monocytogenes (2×10^2).

peritoneal macrophages [4] = test: Activation of peritoneal macrophages: chemiluminescence (oxidative metabolism); conditions: for Chemiluminescence: single dose
peritoneal macrophages [5] = test: Stimulation of the release of lysosomal enzymes from peritoneal macrophages (exocytosis); conditions: for Enzyme activity N-Ac-Glu / Enzyme activity β-Gal / Enzyme activity β-Glu: single dose

O=P(O)(O)C1CC(c2ccccc2)=NO1 (racemic) [Example 34, 3-Phenyl-2-isoxazolin-5-ylphosphonic acid]
change in vivo at 35 mg/kg (active Arthus reaction): -16% | LD50 at 168 h (Acute toxicity): 200 to 300 mg/kg | % Foot swelling after immunization ([1]; 10^6 erythrocytes, 5.0 mg/kg 1x i.p.): 25.3 ± 5.8% | % Foot swelling after immunization ([1]; 10^6 erythrocytes, 10.0 mg/kg 1x i.p.): 28.9 ± 7.7% | % Foot swelling after immunization ([1]; 10^6 erythrocytes, 12.5 mg/kg 1x i.p.): 29.9 ± 3.5% | % Foot swelling after immunization ([1]; 10^6 erythrocytes, 20.0 mg/kg 1x i.p.): 32.5 ± 3.0% | % Foot swelling after immunization ([1]; 10^6 erythrocytes, 25.0 mg/kg 1x i.p.): 33.7 ± 6.6% | % Foot swelling after immunization ([1]; 10^6 erythrocytes, 40.0 mg/kg 1x i.p.): 29.7 ± 4.7% | % Foot swelling after immunization ([1]; 10^6 erythrocytes, 50.0 mg/kg 1x i.p.): 29.2 ± 6.9% | % Foot swelling after immunization ([1]; 10^6 erythrocytes, 100.0 mg/kg 1x i.p.): 27.3 ± 4.6% | % Foot swelling after immunization ([1]; 10^9 erythrocytes, 5.0 mg/kg 1x i.p.): 22.8 ± 3.5% | % Foot swelling after immunization ([1]; 10^9 erythrocytes, 10.0 mg/kg 1x i.p.): 24.1 ± 5.7% | % Foot swelling after immunization ([1]; 10^9 erythrocytes, 12.5 mg/kg 1x i.p.): 26.1 ± 8.9% | % Foot swelling after immunization ([1]; 10^9 erythrocytes, 20.0 mg/kg 1x i.p.): 30.5 ± 6.5% | % Foot swelling after immunization ([1]; 10^9 erythrocytes, 25.0 mg/kg 1x i.p.): 34.1 ± 7.4% | % Foot swelling after immunization ([1]; 10^9 erythrocytes, 40.0 mg/kg 1x i.p.): 32.8 ± 5.6% | % Foot swelling after immunization ([1]; 10^9 erythrocytes, 50.0 mg/kg 1x i.p.): 28.1 ± 4.1% | % Foot swelling after immunization ([1]; 10^9 erythrocytes, 100.0 mg/kg 1x i.p.): 26.6 ± 5.0% | dose at which the stimulant action (DTH reaction) reaches its optimum ([1]; i.p.): 25 mg/kg | Relative stimulation of the DTH reaction ([1]; single i.p. dose of 40 mg/kg, maximal stimulation by Example 34 = 100%): 100% | DTH reaction % increase in the paw volume (Listeria monocytogenes [2]; 2×10^2 bacteria, 0.1 mg/kg 4 × i.p.): 13.3 ± 9.7% | DTH reaction % increase in the paw volume (Listeria monocytogenes [2]; 2×10^2 bacteria, 1.0 mg/kg 4 × i.p.): 15.0 ± 7.0% | DTH reaction % increase in the paw volume (Listeria monocytogenes [2]; 2×10^2 bacteria, 10.0 mg/kg 4 × i.p., p <0.05 (Student's t test)): 19.2 ± 9.4% | DTH reaction % increase in the paw volume (Listeria monocytogenes [2]; Table 13 experiment: 2 × 10^2 organisms, 4 × 10 mg/kg i.p.): 30.9 ± 15.3% | DTH reaction % increase in the paw volume (Listeria monocytogenes [2]; Table 13 experiment: 5 × 10^2 organisms, 4 × 10 mg/kg i.p.): 17.9 ± 12.1% | survival of the second infection (Listeria monocytogenes [3]): survived the second infection | % of surviving animals with organisms in the liver (Listeria monocytogenes [3]; 5 days after second infection): 20% | Mortality after secondary infection (Listeria monocytogenes [3]; second infection 10^6 organisms): 0/10 | Chemiluminescence (peritoneal macrophages [4]; 5 mg/kg i.p.): 842 ± 42 RLU/15 min × 10^3 | Chemiluminescence (peritoneal macrophages [4]; 5 mg/kg p.o.): 728 ± 101 RLU/15 min × 10^3 | Chemiluminescence (peritoneal macrophages [4]; 10 mg/kg i.p.): 2842 ± 223 RLU/15 min × 10^3 | Chemiluminescence (peritoneal macrophages [4]; 10 mg/kg p.o.): 2140 ± 156 RLU/15 min × 10^3 | Chemiluminescence (peritoneal macrophages [4]; 20 mg/kg i.p.): 4935 ± 516 RLU/15 min × 10^3 | Chemiluminescence (peritoneal macrophages [4]; 20 mg/kg p.o.): 3286 ± 283 RLU/15 min × 10^3 | Chemiluminescence (peritoneal macrophages [4]; 40 mg/kg i.p.): 6990 ± 290 RLU/15 min × 10^3 | Chemiluminescence (peritoneal macrophages [4]; 40 mg/kg p.o.): 4405 ± 197 RLU/15 min × 10^3 | chemiluminescence, in words (peritoneal macrophages [4]; i.p. and p.o.): pronounced dose-dependent increase in chemiluminescence | Enzyme activity N-Ac-Glu (peritoneal macrophages [5]; 5 mg/kg i.p.): 2607 mU/ml | Enzyme activity β-Gal (peritoneal macrophages [5]; 5 mg/kg i.p.): 2357 mU/ml | Enzyme activity β-Glu (peritoneal macrophages [5]; 5 mg/kg i.p.): 1197 mU/ml | Enzyme activity N-Ac-Glu (peritoneal macrophages [5]; 5 mg/kg p.o.): 2071 mU/ml | Enzyme activity β-Gal (peritoneal macrophages [5]; 5 mg/kg p.o.): 2216 mU/ml | Enzyme activity β-Glu (peritoneal macrophages [5]; 5 mg/kg p.o.): 973 mU/ml | Enzyme activity N-Ac-Glu (peritoneal macrophages [5]; 10 mg/kg i.p.): 4822 mU/ml | Enzyme activity β-Gal (peritoneal macrophages [5]; 10 mg/kg i.p.): 3956 mU/ml | Enzyme activity β-Glu (peritoneal macrophages [5]; 10 mg/kg i.p.): 1542 mU/ml | Enzyme activity N-Ac-Glu (peritoneal macrophages [5]; 10 mg/kg p.o.): 4283 mU/ml | Enzyme activity β-Gal (peritoneal macrophages [5]; 10 mg/kg p.o.): 3513 mU/ml | Enzyme activity β-Glu (peritoneal macrophages [5]; 10 mg/kg p.o.): 1393 mU/ml | Enzyme activity N-Ac-Glu (peritoneal macrophages [5]; 20 mg/kg i.p.): 6812 mU/ml | Enzyme activity β-Gal (peritoneal macrophages [5]; 20 mg/kg i.p.): 6918 mU/ml | Enzyme activity β-Glu (peritoneal macrophages [5]; 20 mg/kg i.p.): 2067 mU/ml | Enzyme activity N-Ac-Glu (peritoneal macrophages [5]; 20 mg/kg p.o.): 6128 mU/ml | Enzyme activity β-Gal (peritoneal macrophages [5]; 20 mg/kg p.o.): 6011 mU/ml | Enzyme activity β-Glu (peritoneal macrophages [5]; 20 mg/kg p.o.): 1979 mU/ml | Enzyme activity N-Ac-Glu (peritoneal macrophages [5]; 40 mg/kg i.p.): 9281 mU/ml | Enzyme activity β-Gal (peritoneal macrophages [5]; 40 mg/kg i.p.): 9318 mU/ml | Enzyme activity β-Glu (peritoneal macrophages [5]; 40 mg/kg i.p.): 2547 mU/ml | Enzyme activity N-Ac-Glu (peritoneal macrophages [5]; 40 mg/kg p.o.): 8432 mU/ml | Enzyme activity β-Gal (peritoneal macrophages [5]; 40 mg/kg p.o.): 9262 mU/ml | Enzyme activity β-Glu (peritoneal macrophages [5]; 40 mg/kg p.o.): 2286 mU/ml | release of acid hydrolases, in words (peritoneal macrophages [5]; i.p. or oral): increased as a function of the dose
